Experimental data taken from ChEMBL document CHEMBL3044695, “Synthesis and insect antifeedant activity of C-2 and C-5 substituted perhydrofurofurans and 3a-hydroxy-perhydrofurofurans (Part I)” (Tetrahedron, 1999).

Legend:
[1] = tested on: Pieris brassicae; assay: Antifeedant activity against fifth-instar larvae of Pieris brassicae on cabbage leaf discs at 5 mM measured upto 3 hr time period by two-choice bioassay; format: functional
[2] = tested on: Pieris brassicae; assay: Post-ingestive toxicity in Pieris brassicae on cabbage leaf discs at 5 mM; format: organism-based; conditions: in vivo, po, 5000 µM
[3] = tested on: Pieris brassicae; assay: Antifeedant activity against fifth-instar larvae of Pieris brassicae on cabbage leaf discs at 5 mM measured 1.5 to 3 hr time period by no-choice bioassay; format: functional
[4] = tested on: Pieris brassicae; assay: Antifeedant activity against fifth-instar larvae of Pieris brassicae on cabbage leaf discs at 5 mM measured 0 to 1.5 hr time period by no-choice bioassay; format: functional

Row | SMILES | AFI [1] [%] | Activity [2] | AFI [3] [%] | AFI [4] [%]
1 | O[C@]12CCO[C@H]1O[C@H](C1CCCCC1)C2 | 24 | – | – | –
2 | O=C1C[C@]2(O)C[C@@H](C3CCCCC3)O[C@@H]2O1 | 9 | – | – | –
3 | CC(=O)OC1C[C@]2(O)C[C@@H](C3CCCCC3)O[C@@H]2O1 (some centres undefined) | 9 | – | – | –
4 | OC1C[C@]2(O)C[C@@H](C3CCCCC3)O[C@@H]2O1 (some centres undefined) | 16 | – | – | –
5 | COC1C[C@]2(O)C[C@@H](C3CCCCC3)O[C@@H]2O1 (some centres undefined) | 18 | – | – | –
6 | O[C@]12C=CO[C@H]1O[C@H](C1CCCCC1)C2 | 54 | – | – | –
7 | CCCCCCCCCCC1C[C@H]2CC(=O)O[C@H]2O1 (some centres undefined) | 41 | – | – | –
8 | C1=C[C@@H]2CC(c3ccccc3)O[C@@H]2O1 (some centres undefined) | 11 | Non-toxic | -2.6 | -1.7
9 | CCCCCCC1C[C@H]2CC(=O)O[C@H]2O1 (some centres undefined) | -11 | – | – | –
10 | CCCCCCC1C[C@H]2C=CO[C@H]2O1 (some centres undefined) | 11 | Non-toxic | 10.6 | 20.3
11 | O=C1C[C@H]2CC(C3CCCCC3)O[C@H]2O1 (some centres undefined) | 10 | Non-toxic | 13.9 | 22.4
12 | CC(=O)OC1C[C@H]2CC(C3CCCCC3)O[C@H]2O1 (some centres undefined) | 16 | Non-toxic | 3 | 16.7
13 | CCOC1C[C@H]2CC(C3CCCCC3)O[C@H]2O1 (some centres undefined) | 20 | Non-toxic | 9.5 | 18.3
14 | C1CCC(C2C[C@@H]3CCO[C@@H]3O2)CC1 (some centres undefined) | 26 | Non-toxic | 5.4 | 6.7
15 | OC1C[C@H]2CC(C3CCCCC3)O[C@H]2O1 (some centres undefined) | 10 | Non-toxic | 15.9 | 18.6
16 | C1=C[C@@H]2CC(C3CCCCC3)O[C@@H]2O1 (some centres undefined) | -2.5 | Non-toxic | -12.3 | -9.3
17 | CCCCCCCCCC[C@@H]1C[C@H]2CC(=O)O[C@H]2O1 (racemic) | 10 | – | – | –
18 | O=C1C[C@@H]2C[C@@H](c3ccccc3)O[C@@H]2O1 (racemic) | 18 | – | – | –
19 | O=C1C[C@@H]2C[C@H](C3CCCCC3)O[C@@H]2O1 (relative stereo) | 24 | – | – | –
20 | O=C1C[C@H]2C[C@@H](C3CCCCC3)O[C@@H]2O1 (relative stereo) | 9 | – | – | –
